Source: patent publication US20080051438A1, “Preventive/Therapeutic Compositions Useful for Treating Cardiovascular Diseases” (priority 2006, published 2008)

Legend:
Format in all cases: in vivo, human
[1] = test system: hypertensive patients; assay: Special investigation of combined use of cilnidipine and ARB: changes in heart rate; conditions: for heart rate (beat/min.) last meas., ave.: named ARB + 10 mg cilnidipine after switch from 5 mg amlodipine, 12 weeks or later to the last measurement; for heart rate (beat/min.) last meas.: named ARB + cilnidipine 10 mg, last measurement; for heart rate (beat/min.) last meas. / heart rate (beat/min.) start. admin., ave. / heart rate (beat/min.) start admin.: doses unchanged; for heart rate (beat/min.) 12th wk aft admin.: named ARB + cilnidipine only, 12 weeks after starting the combined administration; for heart rate (beat/min.) start. admin., ave.: on named ARB + 5 mg amlodipine, at switch of amlodipine to 10 mg cilnidipine; for heart rate (beat/min.) start admin.: on named ARB alone (candesartan 8, valsartan 80, losartan 50, telmisartan 40 mg) at start of adding cilnidipine 10 mg; for heart rate (beat/min.) upon start. admin.: on named ARB alone, before cilnidipine was additionally administered
Protocol: (§1) A special investigation was conducted in various medical centers, compiled, and analyzed to evaluate the safety and availability of the combined use of cilnidipine and at least one angiotensin II receptor blocker.
(§2) The subjects of the investigation were hypertensive patients which were adapted to cilnidipine. Combined administration of cilnidipine and ARB was started for the treatment of hypertension in these patients.
(§3) A prospective continuous investigation method was conducted. Such a method is continuously conducted with the registered cases with the combined administration of cilnidipine (Atelec®) and ARB, until the number of cases reaches the contracted cases for each center.
(§4) Regarding the administration method of cilnidipine, 5 to 10 mg of cilnidipine was orally administered after breakfast once a day. Meanwhile, the amount may increase or decrease depending on patient's age, symptoms, or the like. When the effect is insufficient, the amount can be increased to 20 mg once a day. The dosing period of cilnidipine was set to 12 weeks in principle.
(§5) The following items were tracked during the investigation: patient's background (sex), existence or nonexistence of previous therapeutic agents and the content thereof, targeted blood pressure (systolic BP/diastolic BP), the conditions of administration of cilnidipine and ARB, antihypertensives used in combination (those other than cilnidipine or ARB), clinical course (systolic BP/diastolic BP/heart rate), and occurrence of side-effects. As for the availability of the combined administration, in the 12th week after starting the combined administration, the doctor in attendance judged the degree of the blood pressure controls on a three-point scale of “well-controlled”, “nearly well-controlled” and “poorly-controlled”, referring to the changes in the systolic and diastolic BP. As for the safety and availability analysis for each patient background, Fisher's exact probability test or the X^2 test was used. As for the blood pressure and heart rate, the average value and the standard deviation were calculated for the subjects before the combined administration (within 4 weeks before starting the combined administration), and data after starting the combined administration were determined on each observation day, and analysis was conducted by using a paired t-test. The test was conducted as the two-sided test and less than 5% of the risk rate was regarded as significant. Furthermore, side-effects were compiled based on the naming of preferred terms (PT) of MedDRA/J ver 8.0.
(§6) Table 7 and FIG. 2 show the number of cases for which the blood pressure was measured, and the changes in the measured values of systolic BP, diastolic BP, and heart rate were measured at the following time points: before starting the combined administration, 4 weeks, 8 weeks, and 12 weeks after starting the combined administration, and the last measurement, which was 222.43 days in average from the start of the combined administration, n=2919). […] Then, it continued to slowly decrease, and the a stable change was seen up to 12 weeks after the start.

[2] = test system: hypertensive patients; assay: Special investigation of combined use of cilnidipine and ARB: changes in systolic and diastolic blood pressure
Protocol: as §1, §2, §3, §4, §5
as §6, with “which was 222.43 days in average from the start of the combined” left out

[3] = test system: hypertensive patients; assay: Special investigation of combined use of cilnidipine and ARB: degree of the blood pressure controls judged by the doctor (efficacy ratio); set-up: concentration or dose not given beside the values; conditions: named ARB alone, then cilnidipine additionally administered, kind of ARB unchanged; blood pressure control in the 12th week
Protocol: as §1, §2, §3, §4, §5
As the index of availability, in the 12th week after starting the combined administration, the doctor in attendance judged the degree of the blood pressure controls on a three-point scale of “well-controlled”, “nearly well-controlled” and “poorly-controlled”.
(1) Among the 2919 cases in the availability analysis, 42 cases in which the degree of the blood pressure controls was not described, and 168 cases which could not be judged, were excluded. In the other 2709 cases, the ratio of number of cases judged as “nearly well-controlled” or higher was calculated as the efficacy ratio. Accordingly, the efficacy ratio of the subject cases in the availability analysis was 84.8% (2298 cases/2709 cases).

[4] = named ARB + 10 mg cilnidipine after switch from 5 mg amlodipine, 12 weeks or later to the last measurement
[5] = named ARB + cilnidipine 10 mg, doses unchanged, last measurement, 211.43 ± 133.43 day after starting the combined use
[6] = named ARB + cilnidipine only, 12 weeks after starting the combined administration
[7] = on named ARB + 5 mg amlodipine, at switch of amlodipine to 10 mg cilnidipine, doses unchanged
[8] = on named ARB alone (candesartan 8, valsartan 80, losartan 50, telmisartan 40 mg) at start of adding cilnidipine 10 mg, doses unchanged
[9] = on named ARB alone, before cilnidipine was additionally administered

| Compound | heart rate (beat/min.) last meas., ave. [1] | heart rate (beat/min.) last meas. [1] | heart rate (beat/min.) 12th wk aft admin. [1] | heart rate (beat/min.) start. admin., ave. [1] | heart rate (beat/min.) start admin. [1] | heart rate (beat/min.) upon start. admin. [1] | diastolic BP [2, 4] | systolic BP [2, 4] | diastolic BP [2, 5] | systolic BP [2, 5] | diastolic BP [2, 6] | systolic BP [2, 6] | diastolic BP [2, 7] | systolic BP [2, 7] | diastolic BP [2, 8] | systolic BP [2, 8] | diastolic BP [2, 9] | systolic BP [2, 9] | efficacy ratio (%) [3] |
| --- | --- | --- | --- | --- | --- | --- | --- | --- | --- | --- | --- | --- | --- | --- | --- | --- | --- | --- | --- |
| CCOc1nc2cccc(C(=O)O)c2n1Cc1ccc(-c2ccccc2-c2nnn[nH]2)cc1 [candesartan] | 72.58 beat/min. | 72.47 ± 11.14 beat/min. | 72.66 ± 11.86 beat/min. | 75.54 beat/min. | 74.19 ± 10.96 beat/min. | 75.14 ± 11.48 beat/min. | 78.58 mmHg | 140.96 mmHg | 79.81 ± 12.72 mmHg | 141.02 ± 17.36 mmHg | 79.81 ± 12.72 mmHg | 141.29 ± 17.02 mmHg | 82.90 mmHg | 152.10 mmHg | 89.59 ± 14.80 mmHg | 164.98 ± 16.35 mmHg | 89.59 ± 14.80 mmHg | 163.78 ± 17.52 mmHg | 85.5% |
| CCCCc1nc(Cl)c(CO)n1Cc1ccc(-c2ccccc2-c2nn[nH]n2)cc1 [losartan] | 72.44 beat/min. | 73.66 ± 9.49 beat/min. | 73.95 ± 7.68 beat/min. | 72.00 beat/min. | 74.13 ± 8.98 beat/min. | 73.81 ± 8.29 beat/min. | 79.78 mmHg | 138.22 mmHg | 79.32 ± 9.82 mmHg | 137.74 ± 15.19 mmHg | 79.45 ± 9.20 mmHg | 139.52 ± 14.43 mmHg | 82.00 mmHg | 150.35 mmHg | 90.40 ± 10.35 mmHg | 161.84 ± 16.13 mmHg | 88.67 ± 9.91 mmHg | 160.78 ± 14.13 mmHg | 89.8% |
| CCCc1nc(C(C)(C)O)c(C(=O)O)n1Cc1ccc(-c2ccccc2-c2nnn[nH]2)cc1 [olmesartan] |  |  |  |  |  |  |  |  |  |  |  |  |  |  |  |  |  |  | 100.0% |
| CCCc1nc2c(C)cc(-c3nc4ccccc4n3C)cc2n1Cc1ccc(-c2ccccc2C(=O)O)cc1 [telmisartan] | 71.00 beat/min. | 72.12 ± 9.42 beat/min. | 73.09 ± 9.29 beat/min. | 70.00 beat/min. | 74.24 ± 11.55 beat/min. | 74.95 ± 12.70 beat/min. | 83.08 mmHg | 147.23 mmHg | 80.49 ± 12.78 mmHg | 138.89 ± 15.89 mmHg | 80.70 ± 11.71 mmHg | 143.64 ± 12.53 mmHg | 86.15 mmHg | 155.00 mmHg | 93.52 ± 10.84 mmHg | 163.00 ± 17.32 mmHg | 90.94 ± 12.27 mmHg | 161.33 ± 12.62 mmHg | 88.0% |
| CCCCC(=O)N(Cc1ccc(-c2ccccc2-c2nnn[nH]2)cc1)[C@H](C(=O)O)C(C)C [valsartan] | 75.86 beat/min. | 72.89 ± 10.20 beat/min. | 71.65 ± 9.38 beat/min. | 77.18 beat/min. | 74.08 ± 10.41 beat/min. | 73.22 ± 9.51 beat/min. | 80.74 mmHg | 140.67 mmHg | 80.62 ± 10.40 mmHg | 140.75 ± 15.61 mmHg | 79.31 ± 10.42 mmHg | 138.32 ± 14.28 mmHg | 89.36 mmHg | 158.15 mmHg | 91.43 ± 11.20 mmHg | 160.65 ± 16.04 mmHg | 91.50 ± 10.58 mmHg | 160.65 ± 15.20 mmHg | 86.0% |
